Read-outs that look alike come from different tables or passages of the source.
Assays:
[1] = target: T1, progesterone receptor (Homo sapiens, UniProt P06401); experiment: Progesterone receptor binding test; settings: for Progesterone receptor (PR) Competition factor: CF 1 = affinity of progesterone, CF >1 lower affinity, <1 higher affinity; for CF PR/CF MR: ratio of competition factors CF(PR) and CF(MR)
T1 construct: made in house; host or cells: Hi5 insect cells (cytosol)
T1 sequence (P06401 1-933): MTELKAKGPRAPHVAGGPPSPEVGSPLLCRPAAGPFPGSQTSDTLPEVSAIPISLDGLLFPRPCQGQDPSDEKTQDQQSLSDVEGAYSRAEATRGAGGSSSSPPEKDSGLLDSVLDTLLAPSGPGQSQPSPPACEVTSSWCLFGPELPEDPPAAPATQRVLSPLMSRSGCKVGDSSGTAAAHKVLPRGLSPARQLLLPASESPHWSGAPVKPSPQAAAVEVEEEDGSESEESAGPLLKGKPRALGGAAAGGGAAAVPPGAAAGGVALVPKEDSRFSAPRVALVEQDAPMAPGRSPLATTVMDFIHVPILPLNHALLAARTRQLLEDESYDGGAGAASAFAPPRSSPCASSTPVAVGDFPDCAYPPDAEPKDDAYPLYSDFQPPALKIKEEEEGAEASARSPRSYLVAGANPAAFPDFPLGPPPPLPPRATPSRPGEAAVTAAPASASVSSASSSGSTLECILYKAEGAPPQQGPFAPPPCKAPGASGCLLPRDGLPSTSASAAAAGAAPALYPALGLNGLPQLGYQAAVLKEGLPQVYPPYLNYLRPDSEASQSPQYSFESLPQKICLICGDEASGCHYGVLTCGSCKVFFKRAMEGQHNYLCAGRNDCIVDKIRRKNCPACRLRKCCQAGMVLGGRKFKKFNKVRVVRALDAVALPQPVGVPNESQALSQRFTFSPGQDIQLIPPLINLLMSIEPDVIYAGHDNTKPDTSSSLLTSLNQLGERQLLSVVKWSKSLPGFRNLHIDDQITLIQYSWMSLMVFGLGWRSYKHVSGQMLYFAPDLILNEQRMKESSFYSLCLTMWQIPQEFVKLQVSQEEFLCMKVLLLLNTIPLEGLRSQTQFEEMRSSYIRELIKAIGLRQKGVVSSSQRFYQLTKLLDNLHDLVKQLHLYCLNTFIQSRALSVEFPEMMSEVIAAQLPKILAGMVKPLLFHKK
Protocol: 1. Progesterone Receptor Binding Test:
Using cytosol from progesterone receptor-expressing insect cells (Hi5), competitive binding to the progesterone receptor was determined from the ability to displace ^3H-progesterone as reference substance from the receptor.

[2] = target: T2, mineralocorticoid receptor (Homo sapiens, UniProt P08235); experiment: Antimineralocorticoid action by transactivation test (MDCK reporter cells); type: cell-based; parameters: expressed in transfected cells; host or cells: MDCK cells; settings: for Emax: read-out: Mineralocorticoid receptor Antagonism efficacy;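 on Emax: percent inhibition of the aldosterone-stimulated reporter signal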;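 on Mineralocorticoid receptor Antagonism efficacy: percent inhibition of the aldosterone-stimulated reporter signal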
T2 sequence (P08235 1-984): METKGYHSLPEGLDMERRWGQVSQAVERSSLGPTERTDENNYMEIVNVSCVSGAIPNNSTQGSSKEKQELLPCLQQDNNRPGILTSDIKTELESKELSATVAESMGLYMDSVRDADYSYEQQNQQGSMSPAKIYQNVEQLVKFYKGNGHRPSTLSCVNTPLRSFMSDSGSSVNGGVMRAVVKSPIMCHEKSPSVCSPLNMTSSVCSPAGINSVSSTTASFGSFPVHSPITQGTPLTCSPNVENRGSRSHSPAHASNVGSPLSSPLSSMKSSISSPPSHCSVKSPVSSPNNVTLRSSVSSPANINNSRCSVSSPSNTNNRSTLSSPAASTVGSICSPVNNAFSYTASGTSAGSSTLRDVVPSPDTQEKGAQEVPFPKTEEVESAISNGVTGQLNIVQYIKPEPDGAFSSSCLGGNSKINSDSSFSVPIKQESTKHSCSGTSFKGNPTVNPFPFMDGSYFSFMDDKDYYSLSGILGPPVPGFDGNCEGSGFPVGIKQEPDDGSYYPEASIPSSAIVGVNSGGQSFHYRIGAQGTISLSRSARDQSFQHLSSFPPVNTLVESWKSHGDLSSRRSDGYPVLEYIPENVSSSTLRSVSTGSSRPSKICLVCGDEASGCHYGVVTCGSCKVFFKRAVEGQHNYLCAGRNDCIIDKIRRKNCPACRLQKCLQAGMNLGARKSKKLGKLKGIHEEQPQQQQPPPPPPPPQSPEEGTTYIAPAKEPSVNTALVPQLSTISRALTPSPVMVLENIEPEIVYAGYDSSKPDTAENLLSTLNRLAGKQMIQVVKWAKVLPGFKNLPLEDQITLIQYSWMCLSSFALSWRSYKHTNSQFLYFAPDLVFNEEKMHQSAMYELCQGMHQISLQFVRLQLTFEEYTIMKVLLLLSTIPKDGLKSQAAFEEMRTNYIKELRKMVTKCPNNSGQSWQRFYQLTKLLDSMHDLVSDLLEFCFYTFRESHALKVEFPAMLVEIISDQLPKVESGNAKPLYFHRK
Protocol: The test compounds were added eight hours later, and the cells were incubated with the compounds for 16 hours. The tests were carried out in triplicate. At the end of incubation the medium containing the effector was removed and replaced with lysis buffer. After luciferase assay substrate (Promega, #E1501) had been added, the 96-well plates were then put in a microplate luminometer (Pherastar, BMG Labtech), and the luminescence was measured. The IC50 values were evaluated using software for calculating dose-effect relations.
5. Determination of Antimineralocorticoid Action by Means of Transactivation Tests:
The antimineralocorticoid activity of the test substances was determined as for the transactivation tests described above.
The following modifications were undertaken: In this case reporter cell lines were used (MDCK cells) that express the human mineralocorticoid receptor, and transiently contain a reporter construct that contains luciferase under the control of a steroid hormone-responsive promoter.

[3] = displacement of 3H-progesterone, cytosol from PR-expressing insect cells (Hi5), read-out: Progesterone receptor (PR) IC50
[4] = MDCK cells, with 1 nM aldosterone, read-out: Mineralocorticoid receptor Antagonism IC50
[5] = MDCK cells, with 1 nM aldosterone

Structure (SMILES) | IC50 [1] [nM] | Progesterone receptor (PR) Competition factor [1] | CF PR/CF MR [1] | IC50 [2] [nM] | Emax ([2]; MDCK) [%] | IC50 [1, 3] [nM] | IC50 [2, 4] [nM] | Emax [2, 5] [%]
C[C@@H]1CC2=CC(=O)CC[C@@H]2[C@H]2CC[C@@]3(C)[C@@H]([C@@H]4C[C@@H]4[C@@]34C=CC(=O)O4)[C@@H]21 [Example 23A, 17β-Hydroxy-7α-methyl-15β,16β-methylene-19-nor-17α-pregna-4,20(2)-dien-3-one-21-carboxylic acid γ-lactone] | 120 | 3.79 | 1.99 | 290 | 105 |  |  | 
CC[C@]12CC[C@H]3[C@@H]([C@H]4C[C@H]4C4=C(Cl)C(=O)CC[C@@H]43)[C@@H]1[C@@H]1C[C@@H]1[C@@]21C=CC(=O)O1 [Example 8, 6β,7β;15β,16β-Bismethylene-4-chloro-17β-hydroxy-18-methyl-19-nor-17α-pregna-4,20(Z)-dien-3-one-21-carboxylic acid γ-lactone] |  | 31.12 | 1.07 |  |  | 740 | 960 | 31.1
CC[C@]12CC[C@H]3[C@H]([C@@H]1[C@@H]1C[C@@H]1[C@@]21C=CC(=O)O1)[C@H](C1CC1)CC1=CC(=O)CC[C@@H]13 [Example 7A, 17β-Hydroxy-7α-cyclopropyl-18-methyl-15β,16β-methylene-19-nor-17α-pregna-4,20(Z)-dien-3-one-21-carboxylic acid γ-lactone] | 380 | 14.22 | 3.03 | 77 | 102 |  |  | 
C[C@]12CC[C@H]3[C@@H](C[C@@H](CO)C4=CC(=O)CC[C@@H]43)[C@@H]1[C@@H]1C[C@@H]1[C@@]21C=CC(=O)O1 [Example 21, 17β-Hydroxy-6β-hydroxymethylene-15β,16β-methylene-19-nor-17α-pregna-4,20(Z)-dien-3-one-21-carboxylic acid γ-lactone] |  | 159.27 |  |  |  | 4800 | 160 | 68
CC[C@]12CC[C@H]3[C@H]([C@@H]1[C@@H]1C[C@@H]1[C@@]21C=CC(=O)O1)[C@H](C)CC1=CC(=O)CC[C@@H]13 [Example 4A, 7α,18-Bismethyl-17β-hydroxy-15β,16β-methylene-19-nor-17α-pregna-4,20(Z)-dien-3-one-21-carboxylic acid γ-lactone] | 48 | 2.66 | 4.43 | 3 | 99.9 |  |  | 
CC[C@@H]1CC2=CC(=O)CC[C@@H]2[C@H]2CC[C@@]3(C)[C@@H]([C@@H]4C[C@@H]4[C@@]34C=CC(=O)O4)[C@H]12 [Example 24A, 7α-Ethyl-17β-hydroxy-15β,16β-methylene-19-nor-17α-pregna-4,20(Z)-dien-3-one-21-carboxylic acid γ-lactone] | 1300 | 41.55 | 21.87 | 160 | 81.1 |  |  | 
C[C@]12CC[C@H]3[C@@H](CCC4=CC(=O)CC[C@@H]43)[C@@H]1[C@@H]1C[C@@H]1[C@@]21C=CC(=O)O1 [Example 19, 17β-Hydroxy-15β,16β-methylene-19-nor-17α-pregna-4,20(Z)-dien-3-one-21-carboxylic acid γ-lactone] | 25 | 1.70 | 0.01 | 62 | 92.8 |  |  | 
CC[C@]12CC[C@H]3[C@@H]([C@H]4C[C@H]4C4=CC(=O)CC[C@@H]43)[C@@H]1[C@@H]1C[C@@H]1[C@@]21C=CC(=O)O1 [Example 1, 6β,7β;15β,16β-Bismethylene-17β-hydroxy-18-methyl-19-nor-17α-pregna-4,20(Z)-dien-3-one-21-carboxylic acid γ-lactone] | 41 | 0.76 | 0.48 | 10 | 79.5 |  |  | 

— patent US20110015162A1, “15,16-Methylene-17-hydroxy-19-nor-21-carboxylic acid-steroid Y-lactone derivative, use thereof and medicinal products containing the derivative” (Bayer Schering Pharma Aktiengesellschaft, priority 2007, published 2011)
